According to patent US20030215817A1, “Modulation of gene expression in formation of fatty atherosclerotic lesions” (priority 2003, published 2003):
Where a name gives a salt, the structure may show the parent alone.

Legend:
Assay type in all cases: in vivo, rabbit
[1] = tested on: Rec1_24 (CCGG 232) mRNA; assay: quantified RT-PCR, Rec1_24; details: for Relative Abundance Rec1_24, 100 pg D: hypercholesterolemic plus lercanidipine R (−), eight weeks, H2 (normocholesterolemic)=1.0
Description: (§1) Nineteen of the isolated DST clones were further validated using RT-PCR analyses; the data are presented in FIGS. 6-24 and in Tables 5-23, below. For each DST examined, the optimal annealing temperature and reagent conditions were determined for the corresponding set of primers (see Table 25) based on results from a preliminary experiment. In eight separate reactions, each set of primers was assayed to find the optimal conditions by adjusting the following four parameters: primer concentration, dNTP concentration, MgCl2 concentration, and number of Taq polymerase units. Once optimal conditions were determined, each DST was run in duplicate multiple simultaneous reactions which usually included at least four dilutions of template (cDNA library), plus control reactions lacking template, and six sequential data points for numbers of cycles.
(§2) Reactions were performed using “Hot Start” PCR with the Clontech TaqStart antibody system (Cat. #5400-1). Each reaction contained 1 ml of the cDNA library dilution as template, determined amounts of AmpliTaq DNA polymerase (cat. #N808-0156), MgCl2, dNTPs (GibcoBRL cat. #10297-018), primer, and Clontech TaqStart Antibody in a 20 ml final reaction volume using 10×Taq buffer II (without MgCl2). Typically, a master mix containing all components except the template was prepared and aliquoted. Various templates were then added to these master mix samples and 20 ml volumes were subsequently dispensed into individual reaction tubes. At various times during the PCR run, tubes were removed sequentially on a predetermined schedule in order to quantitate expression of the target DST over a “window” of cycle times. After amplification, the samples were quantified via fluorimetry.
(§3) PCR was performed at annealing temperatures that were five degrees above the average melting temperature of each primer pair. For primers greater than 10 bases (in a 0.05M salt solution), melting temperature was calculated using the following formula: Tm=59.9+41[% GC]−[675/Primer Length], where %GC is the decimal value. Following determination of the average melting temperature of the primer pair, the annealing temperature was determined by adding five degrees to the average melting temperature. PCR was performed using the following program: 1) 95 degrees Celsius, 3 minutes; 2) 95 degrees Celsius, 30 seconds; 3) TM+5 degrees Celsius, 30 seconds; 4) 72 degrees Celsius, for a time dependent on target length at 16 bp/second; 5) repeat steps 2-4 33 more cycles; 6) 72 degrees Celsius, 3 minutes; 7) 14 degrees Celsius, forever.
(§4) Following temperature cycling, 2 ml of the PCR reaction was added to 140 ml of a 1:280 dilution of PicoGreen (Molecular Probes cat. #P-11495 (10×100 ml)) in TE pH 7.5 in a 96-well Costar UV microtiter plate (Fisher cat. #07-200623). The samples were mixed gently for 1.5 minutes and allowed to equilibrate at room temperature in the dark for 15 minutes. The concentration of the PCR products was quantified by fluorimetry using a PerSeptive Biosystems CytoFluor series 4000 multi-well plate reader.
(§5) Background fluorescence was determined by using duplicate control samples that were cycled with all reaction components except the template. The mean value from these duplicate background control samples was subtracted from the corresponding experimental values prior to analyzing results. The sensitivity of the PicoGreen dsDNA assay is reported to be 250 pg/ml (50 pg dsDNA in a […] assay volume) using a fluorescence microplate reader such as was used in these measurements.
FIG. 23 is a graphical representation of the results of RT-PCR using 100 pg of clone REC1—24 template, in which the amount of PCR product (measured in arbitrary fluorescence units) is plotted against number of cycles, where polyA enriched mRNA was extracted from aortas of rabbits that were normocholesterolemic (filled diamonds, “H2”) and hypercholesterolemic plus lercanidipine R (−), eight weeks (filled squares, “D”).

[2] = tested on: REC1_19 (TGTT 393) mRNA; assay: quantified RT-PCR, Rec1_19; details: for Relative Abundance Rec1_19, 100 pg F: hypercholesterolemic plus lercanidipine racemate, eight weeks, H2 (normocholesterolemic)=1.0
Description: as §1, §2, §3, §4
as §5, with “measurements. […]” for “measurements.”

[3] = tested on: Rec1_12 (GCCC 232) mRNA; assay: quantified RT-PCR, Rec1_12; details: for Relative Abundance Rec1_12, 20 pg F: hypercholesterolemic plus lercanidipine racemate, eight weeks, H2 (normocholesterolemic)=1.0
Description: as §1, §2, §3, §4
as §5, with “measurements. […]” for “measurements.”

[4] = tested on: Rec1_1 (MspI AAGC 288) mRNA; assay: quantified RT-PCR, Rec1_1; details: for Relative Abundance Rec1_1, 20 pg F: hypercholesterolemic plus lercanidipine racemate, eight weeks, H2 (normocholesterolemic)=1.0
Description: as §1, §2, §3, §4, §5
DST clone Rec1—1 was one of the clones further evaluated by RT-PCR. The TOGA analysis of clone Rec1—1, identified as MspI AAGC 288, is discussed above and illustrated in FIGS. 1 and 2. The results of the quantified RT-PCR for Rec1—1 are shown in FIG. 6 and in Table 5 (normalized to the normocholesterolemic control value (“H2”) at each time point). […]

[5] = hypercholesterolemic animals receiving lercanidipine

Compound: COC(=O)C1=C(C)NC(C)=C(C(=O)OC(C)(C)CN(C)CCC(c2ccccc2)c2ccccc2)[C@@H]1c1cccc([N+](=O)[O-])c1.Cl (single isomer, unassigned) [(R)-lercanidipine]
- Relative Abundance Rec1_24, 100 pg D ([1]; cycle 24): 0.3
- Relative Abundance Rec1_24, 100 pg D ([1]; cycle 26): 0.5
- Relative Abundance Rec1_24, 100 pg D ([1]; cycle 28): 0.7
- Relative Abundance Rec1_24, 100 pg D ([1]; cycle 30): 0.9
- Relative Abundance Rec1_24, 100 pg D ([1]; cycle 32): 0.9
- Relative Abundance Rec1_24, 100 pg D ([1]; cycle 34): 1.1
- expression of Rec1_24 at 8 weeks (RT-PCR study), in words ([1]; hypercholesterolemic animals receiving lercanidipine R (−) compared to normocholesterolemic animals): generally somewhat decreased

Compound: COC(=O)C1=C(C)NC(C)=C(C(=O)OC(C)(C)CN(C)CCC(c2ccccc2)c2ccccc2)C1c1cccc([N+](=O)[O-])c1 (racemic) [lercanidipine, lercanidipine hydrochloride]
- Relative Abundance Rec1_19, 100 pg F ([2]; cycle 24): 0.0
- Relative Abundance Rec1_19, 100 pg F ([2]; cycle 26): 0.0
- Relative Abundance Rec1_19, 100 pg F ([2]; cycle 28): 0.0
- Relative Abundance Rec1_19, 100 pg F ([2]; cycle 30): 0.1
- Relative Abundance Rec1_19, 100 pg F ([2]; cycle 32): 0.3
- Relative Abundance Rec1_19, 100 pg F ([2]; cycle 34): 0.5
- expression of Rec1_19 at 8 weeks (RT-PCR study), in words [2, 5]: decreased
- Relative Abundance Rec1_12, 20 pg F ([3]; cycle 26): 0.1
- Relative Abundance Rec1_12, 20 pg F ([3]; cycle 28): 0.0
- Relative Abundance Rec1_12, 20 pg F ([3]; cycle 30): 0.4
- Relative Abundance Rec1_12, 20 pg F ([3]; cycle 32): 0.6
- Relative Abundance Rec1_12, 20 pg F ([3]; cycle 34): 0.6
- Relative Abundance Rec1_12, 20 pg F ([3]; cycle 36): 0.6
- expression of Rec1_12 at 8 weeks (RT-PCR study), in words [3, 5]: decreased
- Relative Abundance Rec1_1, 20 pg F ([4]; cycle 26): 7.7
- Relative Abundance Rec1_1, 20 pg F ([4]; cycle 28): 4.9
- Relative Abundance Rec1_1, 20 pg F ([4]; cycle 30): 3.2
- Relative Abundance Rec1_1, 20 pg F ([4]; cycle 32): 2.1
- Relative Abundance Rec1_1, 20 pg F ([4]; cycle 34): 1.5
- expression of Rec1_1 at 8 weeks (RT-PCR study), in words ([4]; hypercholesterolemic animals receiving lercanidipine racemate): elevated
